Results: the supplement of paper PMC13380429

Columns and labels:
Settings in all cases: 72 h
Vero E6 [1] = test: relative viability EC50 (midpoint between 100% and the lowest measured viability); higher = less toxic
U2OS [2] = test: as above
Calu-3 [3] = test: as above
HepG2 [4] = test: as above
Caco-2 [5] = test: as above
Vero E6 [6] = test: drug sensitivity score (DSS) for viability; higher = more toxic; extreme values may be limits of the assay
U2OS [7] = test: as above
Calu-3 [8] = test: as above
HepG2 [9] = test: as above
Caco-2 [10] = test: as above
Vero E6 [11] = test: cell viability relative to DMSO; higher = less toxic
U2OS [12] = test: as above
Calu-3 [13] = test: as above
HepG2 [14] = test: as above
Caco-2 [15] = test: as above

Row | SMILES | relative viability EC50 (Vero E6 [1]) [µM] | relative viability EC50 (U2OS [2]) [µM] | relative viability EC50 (Calu-3 [3]) [µM] | relative viability EC50 (HepG2 [4]) [µM] | relative viability EC50 (Caco-2 [5]) [µM] | drug sensitivity score (Vero E6 [6]) | drug sensitivity score (U2OS [7]) | drug sensitivity score (Calu-3 [8]) | drug sensitivity score (HepG2 [9]) | drug sensitivity score (Caco-2 [10]) | cell viability (Vero E6 [11]; 1 nM) [%] | cell viability (Vero E6 [11]; 10 nM) [%] | cell viability (Vero E6 [11]; 100 nM) [%] | cell viability (Vero E6 [11]; 1000 nM) [%] | cell viability (Vero E6 [11]; 10000 nM) [%] | cell viability (U2OS [12]; 1 nM) [%] | cell viability (U2OS [12]; 10 nM) [%] | cell viability (U2OS [12]; 100 nM) [%] | cell viability (U2OS [12]; 1000 nM) [%] | cell viability (U2OS [12]; 10000 nM) [%] | cell viability (Calu-3 [13]; 1 nM) [%] | cell viability (Calu-3 [13]; 10 nM) [%] | cell viability (Calu-3 [13]; 100 nM) [%] | cell viability (Calu-3 [13]; 1000 nM) [%] | cell viability (Calu-3 [13]; 10000 nM) [%] | cell viability (HepG2 [14]; 1 nM) [%] | cell viability (HepG2 [14]; 10 nM) [%] | cell viability (HepG2 [14]; 100 nM) [%] | cell viability (HepG2 [14]; 1000 nM) [%] | cell viability (HepG2 [14]; 10000 nM) [%] | cell viability (Caco-2 [15]; 1 nM) [%] | cell viability (Caco-2 [15]; 10 nM) [%] | cell viability (Caco-2 [15]; 100 nM) [%] | cell viability (Caco-2 [15]; 1000 nM) [%] | cell viability (Caco-2 [15]; 10000 nM) [%]
1 | COc1cc(C(C)=O)ccc1OCCCN1CCC(c2noc3cc(F)ccc23)CC1 [iloperidone] | > 10 | > 10 | > 10 | > 10 | > 10 | 0 | 0 | 0.4 | 0 | 0.8 | 101 | 96.7 | 94.7 | 98 | 95.6 | 97.9 | 97.5 | 96.6 | 99.6 | 91 | 93 | 96.7 | 104 | 104 | 80.5 | 91.9 | 91.3 | 94.4 | 94.2 | 88.6 | 90.7 | 98.5 | 84.8 | 94.9 | 82
2 | CCN(CC)CCOC(=O)C1(c2ccc([N+](=O)[O-])cc2)CCCC1 [nitrocaramiphen] | > 10 | > 10 | > 10 | > 10 | > 10 | 0 | 0 | 0 | 0 | 0 | 104 | 92.9 | 97.2 | 102 | 106 | 95.5 | 102 | 95.4 | 94.8 | 98.5 | 90 | 95.7 | 96.5 | 94 | 98.2 | 107 | 97.2 | 103 | 108 | 102 | 103 | 90.1 | 98.3 | 106 | 101
3 | C[C@]1(COc2ccc(N3CCC(Oc4ccc(OC(F)(F)F)cc4)CC3)cc2)Cn2cc([N+](=O)[O-])nc2O1 [delamanid] | > 10 | > 10 | > 10 | > 10 | > 10 | 0 | 0 | 0 | 0 | 0 | 104 | 102 | 101 | 102 | 99.8 | 105 | 98.2 | 103 | 98.3 | 102 | 93 | 98 | 103 | 91.9 | 102 | 96.5 | 97.8 | 92.6 | 99.5 | 104 | 103 | 96.9 | 103 | 90.5 | 94.3
4 | COc1ccccc1CC(=N)N1C[C@@H]2C(=O)CCC(c3ccccc3)(c3ccccc3)[C@@H]2C1 | > 10 | > 10 | > 10 | > 10 | > 10 | 0 | 0 | 0 | 0 | 0 | 94.3 | 101 | 94.7 | 95.9 | 110 | 103 | 95.1 | 101 | 101 | 93.8 | 94.1 | 88.4 | 98.3 | 109 | 86.6 | 93 | 95.9 | 88.2 | 106 | 105 | 96.6 | 96.5 | 95.3 | 109 | 98.4
5 | COc1cc(/C=C/C(=O)N2CCN(CC(=O)N3CCCC3)CC2)cc(OC)c1OC [cinepazide] | > 10 | > 10 | > 10 | > 10 | > 10 | 0 | 0 | 0 | 0 | 0 | 98.5 | 98.1 | 102 | 100 | 98.6 | 92.6 | 97.5 | 92.1 | 100 | 95.6 | 104 | 96 | 95.8 | 94 | 101 | 101 | 96.9 | 90.8 | 98.2 | 96.1 | 96.4 | 105 | 94.9 | 103 | 91.3
6 | CC(C)c1ccc(NC(=O)Cn2cnc3c2c(=O)n(C)c(=O)n3C)cc1 | > 10 | > 10 | > 10 | > 10 | > 10 | 0 | 0 | 0 | 0 | 0 | 91.6 | 107 | 98.7 | 102 | 101 | 99.7 | 97.2 | 101 | 100 | 98.2 | 87 | 81.2 | 92.9 | 90 | 94.8 | 97.3 | 106 | 93.4 | 112 | 98.5 | 100 | 96 | 92.5 | 89.1 | 95.9
7 | CN1CCN(c2nc(C3=C(c4c[nH]c5ccccc45)C(=O)NC3=O)c3ccccc3n2)CC1 [sotrastaurin] | > 10 | > 10 | > 10 | > 10 | > 10 | 0 | 0 | 0 | 0 | 0.9 | 96.1 | 99.4 | 100 | 99.3 | 101 | 95.6 | 94 | 103 | 95 | 94.1 | 101 | 94.6 | 96 | 97.6 | 98.6 | 108 | 107 | 101 | 104 | 92.6 | 96.3 | 102 | 99.1 | 86.8 | 89.7
8 | N[C@@H](CC(=O)N1CCn2c(nnc2C(F)(F)F)C1)Cc1n[nH]c2c(F)c(F)ccc12 [PK-44] | > 10 | > 10 | > 10 | > 10 | > 10 | 0 | 0 | 0 | 0 | 0 | 102 | 103 | 104 | 98.4 | 100 | 102 | 100 | 99.4 | 104 | 99.7 | 95.3 | 96.6 | 95.8 | 100 | 100 | 102 | 92 | 114 | 91.5 | 91 | 87.8 | 96.3 | 102 | 105 | 92.4
9 | C1N2CN3CN1CN(C2)C3 [methenamine] | > 10 | > 10 | > 10 | > 10 | > 10 | 0 | 0 | 0 | 0 | 0 | 98.7 | 92.3 | 93.1 | 94.6 | 102 | 89.9 | 97.5 | 100 | 98.2 | 99.7 | 97.1 | 96.4 | 97.2 | 102 | 93.5 | 98.4 | 96.2 | 102 | 105 | 106 | 94.6 | 99.8 | 96.5 | 104 | 106
10 | CCN(CC)CCNC(=O)c1ccc(N)cc1 [procainamide] | > 10 | > 10 | > 10 | > 10 | > 10 | 0 | 0 | 0 | 0 | 0 | 95.9 | 97.4 | 92.6 | 94.1 | 106 | 94.9 | 97.9 | 98.8 | 101 | 100 | 105 | 110 | 93.5 | 99.5 | 98.7 | 99.9 | 115 | 107 | 102 | 106 | 88.5 | 97.6 | 96.1 | 105 | 101
11 | C=CCN1C[C@H](C(=O)N(CCCN(C)C)C(=O)NCC)C[C@@H]2c3cccc4[nH]cc(c34)C[C@H]21 [cabergoline] | > 10 | > 10 | > 10 | > 10 | > 10 | 0 | 0 | 0 | 0 | 4 | 103 | 98 | 88.9 | 96.1 | 95.7 | 101 | 100 | 96.5 | 101 | 103 | 106 | 99.7 | 97.1 | 107 | 99.4 | 89.3 | 95.2 | 106 | 92.8 | 90.7 | 108 | 95.2 | 83 | 89 | 89.5
12 | CCCCNc1ccc(C(=O)OCCN(C)C)cc1 [tetracaine] | > 10 | > 10 | > 10 | > 10 | > 10 | 0 | 0 | 0 | 0 | 0 | 107 | 105 | 103 | 101 | 99.5 | 104 | 97.4 | 98.7 | 98.2 | 102 | 107 | 101 | 98.2 | 98.4 | 108 | 99.5 | 99.3 | 104 | 104 | 94.3 | 101 | 92.7 | 105 | 100 | 101
13 | CNC[C@H](O)[C@@H](O)[C@H](O)[C@H](O)CO [meglumine] | > 10 | > 10 | > 10 | > 10 | > 10 | 0 | 0 | 0 | 0 | 0 | 88.3 | 91.3 | 93.9 | 99.5 | 96.5 | 98.3 | 92.8 | 104 | 90.8 | 99 | 108 | 95.7 | 99.4 | 88.2 | 97.7 | 89.7 | 93.5 | 81.5 | 98.1 | 85 | 92.6 | 76.1 | 95.3 | 104 | 95.1
14 | C#Cc1cccc2c1c(C(=O)c1ccc(Cn3c(C)nc4cnccc43)c(F)c1)cn2C(=O)N(C)C [ABT-491] | > 10 | > 10 | > 10 | > 10 | > 10 | 0 | 0 | 0 | 0 | 0 | 103 | 97.1 | 97.1 | 98.4 | 95.5 | 99.7 | 98.3 | 96.6 | 98.5 | 94.7 | 97.2 | 102 | 100 | 106 | 106 | 102 | 110 | 95.6 | 100 | 91.4 | 101 | 86.1 | 91.1 | 91.3 | 93.3
15 | Nc1ccncc1N [amifampridine] | > 10 | > 10 | > 10 | > 10 | > 10 | 0 | 0 | 0 | 0 | 0 | 95.7 | 100 | 98.2 | 97.7 | 91.8 | 97.7 | 95.5 | 96.1 | 95 | 96.9 | 106 | 96.9 | 96 | 98.8 | 98.1 | 98.1 | 96.4 | 98 | 93.7 | 89.6 | 99.2 | 97.3 | 91 | 91 | 103
